ChEMBL document CHEMBL3596165, “Synthesis, structure elucidation and identification of antiproliferative activities of a novel class of thiophene bioisosteres bearing the privileged 7,8-dihydroimidazo[2,1-c][1,2,4]triazin-4(6H)-one scaffold” (Bioorg Med Chem, 2015)

Assays:
HeLa [1] = test: Antiproliferative activity against human HeLa cells at 50 ug/ml after 24 hrs by BrdUrd incorporation assay; format: functional; details: read-out: GI
T47D [2] = test: Antiproliferative activity against human T47D cells at 50 ug/ml after 24 hrs by BrdUrd incorporation assay; format: functional; details: read-out: GI
T47D [3] = test: Antiproliferative activity against human T47D cells at 50 ug/ml after 48 hrs by BrdUrd incorporation assay; format: functional; details: read-out: GI
HeLa [4] = test: Antiproliferative activity against human HeLa cells at 50 ug/ml after 72 hrs by BrdUrd incorporation assay; format: functional; details: read-out: GI
HeLa [5] = test: Antiproliferative activity against human HeLa cells at 50 ug/ml after 48 hrs by BrdUrd incorporation assay; format: functional; details: read-out: GI
T47D [6] = test: Antiproliferative activity against human T47D cells at 50 ug/ml after 72 hrs by BrdUrd incorporation assay; format: functional; details: read-out: GI
TOV112D [7] = test: Antiproliferative activity against human TOV112D cells at 50 ug/ml after 48 hrs by BrdUrd incorporation assay; format: functional; details: read-out: GI
Vero [8] = test: Antiproliferative activity against African green monkey Vero cells after 72 hrs by BrdUrd incorporation assay; format: cell-based; details: Chlorocebus sabaeus
TOV112D [9] = test: Antiproliferative activity against human TOV112D cells after 72 hrs by BrdUrd incorporation assay; format: functional, cell-based
HeLa [10] = test: Antiproliferative activity against human HeLa cells after 48 hrs by BrdUrd incorporation assay; format: functional, cell-based
TOV112D [11] = test: Antiproliferative activity against human TOV112D cells after 24 hrs by BrdUrd incorporation assay; format: functional, cell-based
HeLa [12] = test: Antiproliferative activity against human HeLa cells after 24 hrs by BrdUrd incorporation assay; format: functional, cell-based
Vero [13] = test: Antiproliferative activity against African green monkey Vero cells at 50 ug/ml after 24 hrs by BrdUrd incorporation assay; format: cell-based; details: chlorocebus sabaeus
TOV112D [14] = test: Antiproliferative activity against human TOV112D cells after 48 hrs by BrdUrd incorporation assay; format: functional, cell-based
A549 [15] = test: Antiproliferative activity against human A549 cells at 50 ug/ml after 72 hrs by BrdUrd incorporation assay; format: functional; details: A549, 72 h, read-out: GI
T47D [16] = test: Antiproliferative activity against human T47D cells after 24 hrs by BrdUrd incorporation assay; format: functional, cell-based
A549 [17] = test: Antiproliferative activity against human A549 cells after 48 hrs by BrdUrd incorporation assay; format: functional, cell-based; details: A549, 48 h
TOV112D [18] = test: Antiproliferative activity against human TOV112D cells at 50 ug/ml after 24 hrs by BrdUrd incorporation assay; format: functional; details: read-out: GI
Vero [19] = test: Antiproliferative activity against African green monkey Vero cells after 48 hrs by BrdUrd incorporation assay; format: cell-based; details: Chlorocebus sabaeus
T47D [20] = test: Antiproliferative activity against human T47D cells after 48 hrs by BrdUrd incorporation assay; format: functional, cell-based
HeLa [21] = test: Antiproliferative activity against human HeLa cells after 72 hrs by BrdUrd incorporation assay; format: functional, cell-based
[22] = Antiproliferative activity against African green monkey Vero cells at 50 ug/ml after 48 hrs by BrdUrd incorporation assay; format: cell-based; details: chlorocebus sabaeus, read-out: GI
A549 [23] = test: Antiproliferative activity against human A549 cells at 50 ug/ml after 24 hrs by BrdUrd incorporation assay; format: functional; details: A549, 24 h, read-out: GI
Vero [24] = test: Antiproliferative activity against African green monkey Vero cells after 24 hrs by BrdUrd incorporation assay; format: cell-based; details: chlorocebus sabaeus
[25] = Antiproliferative activity against African green monkey Vero cells at 50 ug/ml after 72 hrs by BrdUrd incorporation assay; format: cell-based; details: chlorocebus sabaeus, read-out: GI
A549 [26] = test: Antiproliferative activity against human A549 cells at 50 ug/ml after 48 hrs by BrdUrd incorporation assay; format: functional; details: A549, 48 h, read-out: GI
A549 [27] = test: Antiproliferative activity against human A549 cells after 72 hrs by BrdUrd incorporation assay; format: functional, cell-based; details: A549, 72 h
T47D [28] = test: Antiproliferative activity against human T47D cells after 72 hrs by BrdUrd incorporation assay; format: functional, cell-based
A549 [29] = test: Antiproliferative activity against human A549 cells after 24 hrs by BrdUrd incorporation assay; format: functional, cell-based; details: A549, 24 h
TOV112D [30] = test: Antiproliferative activity against human TOV112D cells at 50 ug/ml after 72 hrs by BrdUrd incorporation assay; format: functional; details: read-out: GI

Structure (SMILES) | inhibition of growth at 50 µg/mL (HeLa [1]) [%] | inhibition of growth at 50 µg/mL (T47D [2]) [%] | inhibition of growth at 50 µg/mL (T47D [3]) [%] | inhibition of growth at 50 µg/mL (HeLa [4]) [%] | inhibition of growth at 50 µg/mL (HeLa [5]) [%] | inhibition of growth at 50 µg/mL (T47D [6]) [%] | inhibition of growth at 50 µg/mL (TOV112D [7]) [%] | IC50 (Vero [8]) [µM] | IC50 (TOV112D [9]) [µM] | IC50 (HeLa [10]) [µM] | IC50 (TOV112D [11]) [µM] | IC50 (HeLa [12]) [µM] | growth inhibition (GI) (Vero [13]) [%] | IC50 (TOV112D [14]) [µM] | inhibition of growth at 50 µg/mL (A549 [15]) [%] | IC50 (T47D [16]) [µM] | IC50 (A549 [17]) [µM] | inhibition of growth at 50 µg/mL (TOV112D [18]) [%] | IC50 (Vero [19]) [µM] | IC50 (T47D [20]) [µM] | other results
O=c1c(-c2ccco2)nnc2n1CCN2c1ccc(Cl)c(Cl)c1 | 50 | 10 | 20 | 95 | 50 | 40 | – | – | – | – | – | – | – | – | – | – | – | – | – | – | –
COc1ccccc1N1CCn2c1nnc(-c1ccco1)c2=O | 25 | 0 | 30 | 80 | 35 | 70 | – | – | – | – | – | – | – | – | – | – | – | – | – | – | –
O=c1c(-c2cccs2)nnc2n1CCN2c1ccc(Cl)cc1 | 50 | 90 | 100 | 100 | 90 | 100 | 90 | 80 | 80 | 80 | 100 | 150 | 25 | 80 | 100 | 80 | 80 | 75 | 130 | 80 | IC50 (HeLa [21]): 80 µM; inhibition at 48 h, 50 ug/ml [22]: 60%; inhibition of growth at 50 µg/mL (A549 [23]): 80%; IC50 (Vero [24]): > 150 µM; inhibition at 72 h, 50 ug/ml [25]: 90%; inhibition of growth at 50 µg/mL (A549 [26]): 90%; IC50 (A549 [27]): 80 µM; IC50 (T47D [28]): 80 µM; IC50 (A549 [29]): 90 µM; inhibition of growth at 50 µg/mL (TOV112D [30]): 100%
O=c1c(-c2ccco2)nnc2n1CCN2c1cccc(Cl)c1 | 80 | 20 | 50 | 95 | 80 | 80 | – | – | – | – | – | – | – | – | – | – | – | – | – | – | –
COc1ccccc1N1CCn2c1nnc(-c1cccs1)c2=O | 50 | 80 | 90 | 80 | 60 | 95 | 80 | 90 | 80 | 130 | 100 | 150 | 50 | 100 | 90 | 100 | 100 | 75 | 100 | 90 | IC50 (HeLa [21]): 100 µM; inhibition at 48 h, 50 ug/ml [22]: 75%; inhibition of growth at 50 µg/mL (A549 [23]): 70%; IC50 (Vero [24]): 150 µM; inhibition at 72 h, 50 ug/ml [25]: 90%; inhibition of growth at 50 µg/mL (A549 [26]): 80%; IC50 (A549 [27]): 80 µM; IC50 (T47D [28]): 80 µM; IC50 (A549 [29]): 110 µM; inhibition of growth at 50 µg/mL (TOV112D [30]): 90%
Cc1cccc(N2CCn3c2nnc(-c2ccco2)c3=O)c1C | 60 | 0 | 15 | 90 | 75 | 25 | – | – | – | – | – | – | – | – | – | – | – | – | – | – | –
O=c1c(-c2ccco2)nnc2n1CCN2c1ccccc1Cl | 80 | 5 | 15 | 100 | 80 | 25 | – | – | – | – | – | – | – | – | – | – | – | – | – | – | –
Cc1ccccc1N1CCn2c1nnc(-c1ccco1)c2=O | 25 | 25 | 50 | 50 | 25 | 75 | – | – | – | – | – | – | – | – | – | – | – | – | – | – | –
O=c1c(-c2cccs2)nnc2n1CCN2c1cccc(Cl)c1 | 90 | 100 | 100 | 100 | 100 | 100 | 100 | 80 | 80 | 80 | 80 | 80 | 100 | 80 | 100 | 80 | 80 | 90 | 80 | 80 | IC50 (HeLa [21]): 80 µM; inhibition at 48 h, 50 ug/ml [22]: 100%; inhibition of growth at 50 µg/mL (A549 [23]): 90%; IC50 (Vero [24]): 80 µM; inhibition at 72 h, 50 ug/ml [25]: 100%; inhibition of growth at 50 µg/mL (A549 [26]): 100%; IC50 (A549 [27]): 80 µM; IC50 (T47D [28]): 80 µM; IC50 (A549 [29]): 80 µM; inhibition of growth at 50 µg/mL (TOV112D [30]): 100%
Cc1ccccc1N1CCn2c1nnc(-c1cccs1)c2=O | 45 | 80 | 90 | 90 | 75 | 100 | 100 | 90 | 80 | 110 | 90 | > 160 | 25 | 80 | 100 | 100 | 80 | 90 | 160 | 90 | IC50 (HeLa [21]): 90 µM; inhibition at 48 h, 50 ug/ml [22]: 50%; inhibition of growth at 50 µg/mL (A549 [23]): 80%; IC50 (Vero [24]): > 160 µM; inhibition at 72 h, 50 ug/ml [25]: 90%; inhibition of growth at 50 µg/mL (A549 [26]): 95%; IC50 (A549 [27]): 80 µM; IC50 (T47D [28]): 80 µM; IC50 (A549 [29]): 100 µM; inhibition of growth at 50 µg/mL (TOV112D [30]): 100%
O=c1c(-c2ccco2)nnc2n1CCN2c1ccccc1 | 50 | 50 | 85 | 100 | 75 | 95 | – | – | – | – | – | – | – | – | – | – | – | – | – | – | –
Cc1ccc(N2CCn3c2nnc(-c2cccs2)c3=O)cc1 | 80 | 95 | 100 | 100 | 100 | 100 | 100 | 80 | 80 | 80 | 90 | 100 | 90 | 80 | 100 | 90 | 90 | 90 | 80 | 80 | IC50 (HeLa [21]): 80 µM; inhibition at 48 h, 50 ug/ml [22]: 95%; inhibition of growth at 50 µg/mL (A549 [23]): 90%; IC50 (Vero [24]): 90 µM; inhibition at 72 h, 50 ug/ml [25]: 100%; inhibition of growth at 50 µg/mL (A549 [26]): 95%; IC50 (A549 [27]): 80 µM; IC50 (T47D [28]): 80 µM; IC50 (A549 [29]): 90 µM; inhibition of growth at 50 µg/mL (TOV112D [30]): 100%
Cc1ccc(N2CCn3c2nnc(-c2ccco2)c3=O)cc1 | 50 | 40 | 60 | 80 | 50 | 80 | – | – | – | – | – | – | – | – | – | – | – | – | – | – | –
O=c1c(-c2ccco2)nnc2n1CCN2c1ccc(Cl)cc1 | 50 | 0 | 15 | 90 | 75 | 15 | – | – | – | – | – | – | – | – | – | – | – | – | – | – | –
